Values of other authors as cited in patent US7923560B2, “Delivery of immune response modifier compounds” (3M Innovative Properties Company, priority 2003, dated 2011).

Legend:
[1] = target: T1, TLR 7 (Homo sapiens, UniProt Q9NYK1)
T1 construct: expressed in transfected cells
T1 sequence (Q9NYK1 27-1049): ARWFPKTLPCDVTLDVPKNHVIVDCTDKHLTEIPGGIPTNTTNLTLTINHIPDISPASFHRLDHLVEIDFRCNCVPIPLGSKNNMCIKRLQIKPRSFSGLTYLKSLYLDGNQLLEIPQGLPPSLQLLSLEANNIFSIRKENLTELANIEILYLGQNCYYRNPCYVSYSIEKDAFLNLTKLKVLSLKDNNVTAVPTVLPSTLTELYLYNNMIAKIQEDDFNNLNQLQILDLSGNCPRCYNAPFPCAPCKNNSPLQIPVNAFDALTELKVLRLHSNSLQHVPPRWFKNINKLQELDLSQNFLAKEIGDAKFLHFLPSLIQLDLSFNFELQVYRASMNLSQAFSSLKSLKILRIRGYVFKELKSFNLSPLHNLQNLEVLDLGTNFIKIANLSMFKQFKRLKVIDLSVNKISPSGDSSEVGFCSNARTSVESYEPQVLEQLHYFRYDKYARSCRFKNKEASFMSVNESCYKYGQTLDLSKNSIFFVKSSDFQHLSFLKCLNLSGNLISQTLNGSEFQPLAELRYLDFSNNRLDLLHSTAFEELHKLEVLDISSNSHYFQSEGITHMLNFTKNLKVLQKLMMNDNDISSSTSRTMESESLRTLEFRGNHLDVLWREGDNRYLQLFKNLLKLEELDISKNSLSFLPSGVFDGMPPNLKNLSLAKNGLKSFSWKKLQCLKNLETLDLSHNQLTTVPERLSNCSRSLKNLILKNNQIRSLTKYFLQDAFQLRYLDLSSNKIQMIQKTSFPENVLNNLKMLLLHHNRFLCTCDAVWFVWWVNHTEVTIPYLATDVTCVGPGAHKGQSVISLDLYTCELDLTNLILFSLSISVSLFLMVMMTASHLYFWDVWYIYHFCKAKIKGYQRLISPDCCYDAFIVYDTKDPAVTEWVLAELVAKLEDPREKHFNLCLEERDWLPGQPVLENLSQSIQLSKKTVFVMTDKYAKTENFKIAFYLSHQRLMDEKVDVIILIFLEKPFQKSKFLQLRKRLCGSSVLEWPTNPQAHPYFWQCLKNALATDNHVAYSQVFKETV

[2] = target: T2, TLR 8 (Homo sapiens, UniProt Q9NR97)
T2 construct: expressed in transfected cells
T2 sequence (Q9NR97 27-1041): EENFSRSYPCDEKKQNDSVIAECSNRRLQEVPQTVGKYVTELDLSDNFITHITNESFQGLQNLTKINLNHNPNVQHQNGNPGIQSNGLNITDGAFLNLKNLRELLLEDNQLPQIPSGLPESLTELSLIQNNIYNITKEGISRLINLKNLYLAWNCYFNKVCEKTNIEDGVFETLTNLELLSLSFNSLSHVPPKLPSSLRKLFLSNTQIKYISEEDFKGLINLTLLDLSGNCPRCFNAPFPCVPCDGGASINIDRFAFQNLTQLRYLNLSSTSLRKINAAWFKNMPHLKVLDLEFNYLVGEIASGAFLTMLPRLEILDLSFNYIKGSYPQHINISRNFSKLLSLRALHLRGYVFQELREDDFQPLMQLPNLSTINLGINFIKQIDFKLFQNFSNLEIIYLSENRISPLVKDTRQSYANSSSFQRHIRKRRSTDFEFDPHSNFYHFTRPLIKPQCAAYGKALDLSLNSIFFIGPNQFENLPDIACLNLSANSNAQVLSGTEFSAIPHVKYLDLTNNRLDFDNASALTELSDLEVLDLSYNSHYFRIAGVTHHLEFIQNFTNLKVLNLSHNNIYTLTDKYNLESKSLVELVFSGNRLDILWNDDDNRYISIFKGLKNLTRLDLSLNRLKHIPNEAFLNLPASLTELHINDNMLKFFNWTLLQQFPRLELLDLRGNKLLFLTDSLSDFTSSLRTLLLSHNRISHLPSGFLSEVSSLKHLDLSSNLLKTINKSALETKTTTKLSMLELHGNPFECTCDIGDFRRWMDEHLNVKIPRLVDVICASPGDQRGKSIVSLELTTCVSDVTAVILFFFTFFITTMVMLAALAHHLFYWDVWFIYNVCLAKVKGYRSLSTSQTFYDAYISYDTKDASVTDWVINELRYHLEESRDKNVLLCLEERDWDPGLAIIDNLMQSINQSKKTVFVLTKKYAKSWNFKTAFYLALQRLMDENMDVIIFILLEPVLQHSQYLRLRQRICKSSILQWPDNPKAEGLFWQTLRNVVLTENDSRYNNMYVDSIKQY

[3] = delivered systemically, compared to imiquimod

Row | Compound | TLR 7 agonist activity [1] | TLR 8 agonist activity [2] | CNS effect [3]
1 | CCOCc1nc2c(N)nc3c(c2n1CC(C)(C)O)CCCC3 [4-amino-2-(ethoxymethyl)-α,α-dimethyl-6,7,8,9-tetrahydro-1H-imidazo[4,5-c]quinoline-1-ethanol] | a TLR 7 and TLR 8 agonist | a TLR 7 and TLR 8 agonist | –
2 | CC(C)(O)Cn1cnc2c(N)nc3ccccc3c21 [4-amino-α,α-dimethyl-1H-imidazo[4,5-c]quinoline-1-ethanol] | predominantly a TLR 7 agonist | not a substantial TLR 8 agonist | much lower CNS effect
3 | CCOCc1nc2c(N)nc3ccccc3c2n1CC(C)(C)O [Resiquimod, 4-amino-2-ethoxymethyl-α,α-dimethyl-1H-imidazo[4,5-c]quinoline-1-ethanol] | combination TLR 7 and TLR 8 agonist | combination TLR 7 and TLR 8 agonist | –
